“And” between values parts separate entries of the source, which are not always exact repeats. Identical values can stand only once. Like-named read-outs stand apart in the source and are kept apart here.
How the values were obtained:
Format in all cases: cell-based, human
MCF-7/HYOR cells [1] = test: Flow cytometry, cell cycle arrest in MCF-7/HYOR cells
MCF-7 cells [2] = test: Tumor cell proliferation assay, uninfected MCF-7 cells; conditions: for IC50: Homo sapiens, uninfected MCF-7
Method: MCF-7 and MCF-7/HYOR cells were seeded in 48-well plates at 10,000 cells/cm^2. […] of the test compounds (5FU, 5′DFUR, CIdUrd, BrdUrd, IdUrd and TFT) with or without 10 μM TPi were added. The cells were incubated for another 4 days, trypsinized and counted by a Coulter counter (Analis, Suarlée, Belgium). In some experiments, the antibiotic plasmocin was added one or three days before addition of the test compounds.

MDA-MB-231 cells = test: Cytostatic activity in M. hyorhinis-infected MDA-MB-231 breast carcinoma cells
OST.TK^− cells = test: Cytostatic activity in M. hyorhinis-infected osteosarcoma cells
MCF-7 cells [3] = test: Gemcitabine metabolite distribution in MCF-7 cells (HPLC); conditions: 24 h; 1 μCi; FIG. 5
Method: MCF-7 and MCF-7/HYOR cells were seeded and treated with 1 μCi of nucleoside with and without TPi as described above. […] Next, the cells were incubated in 0.5 ml absolute ice-cold methanol and kept on ice for 20 minutes. After centrifugation for 20 minutes at 13,000 rpm, the supernatant was subjected to HPLC analysis. The nucleobases, nucleosides and nucleotides in the supernatant were separated by a Partisphere 10 SAX anion exchange column (Whatmann International Ltd., Maidstone, England) as described earlier (Balzarini J. et al., AIDS 2002; 16:2159-63), while the nucleobases and nucleosides present in the collected medium were separated using an RP-8 column. The amount of compound incorporated into nucleic acids was measured as described above.

MCF-7 cells [4] = test: Flow cytometry, cell cycle arrest in MCF-7 cells
MCF-7/HYOR cells [5] = test: Tumor cell proliferation assay, M. hyorhinis-infected MCF-7 cells; conditions: for IC50: Homo sapiens, MCF7, M. hyorhinis-infected MCF-7
Method: Mycoplasma hyorhinis (ATCC 17981) was obtained from the American Type Culture Collection (ATCC, Manassas, Va.). The freeze-dried bacteria were reconstituted by adding 1 ml of DMEM. […] The co-culture of MCF-7 cells and M. hyorhinis was maintained under the same conditions as the uninfected MCF-7 cells. […] The cells were incubated for another 4 days, trypsinized and counted by a Coulter counter (Analis, Suarlée, Belgium).

MCF-7/HYOR cell cultures = test: Nucleoside metabolism experiments, distribution of drug-derived radiolabel in MCF-7/HYOR cell cultures; conditions: 24 h; 1 μCi; FIG. 5
Method: Next, the cells were trypsinized, transferred to Eppendorf tubes and centrifuged for 10 minutes at 1,400 rpm. The pellet was resuspended in 1 ml absolute ice-cold methanol and kept on ice for 20 minutes. After centrifugation for 20 minutes at 13,000 rpm the pellet was washed twice with methanol, resuspended in methanol and transferred to scintillation vials containing 9 ml of Ready safe liquid scintillation reagent (‘Hisafe 3’, Perkin Elmer, Waltham, Mass.). The radioactivity was measured by a Liquid scintillation analyzer (2300 TR, Packard, Canberra, Australia). […] Next, the cells were incubated in 0.5 ml absolute ice-cold methanol and kept on ice for 20 minutes. After centrifugation for 20 minutes at 13,000 rpm, the supernatant was subjected to HPLC analysis. […] The amount of compound incorporated into nucleic acids was measured as described above.

[6] = IC50 in the absence of TPi to IC50 in the presence of TPi

Compound: Nc1ccn([C@@H]2O[C@H](CO)[C@@H](O)C2(F)F)c(=O)n1 [gemcitabine, 2′,2′-difluorodeoxycytidine]
- Higher concentration needed to cause a similar S-phase arrest than in MCF-7 (MCF-7/HYOR cells [1]): 25 fold
- IC50 (MCF-7 cells [2]; MCF7, 96 h, no TPi, 4 days, read-out: IC50 MCF-7 As such): 7.3 ± 3.6 nM
- IC50 (MCF-7 cells [2]; MCF7, with 10 μM TPi, read-out: IC50 MCF-7 +TPi (10 μM)): 6.3 ± 2.2 nM
- Ratio (1)/(2) MCF-7 (MCF-7 cells [2]; [6]): 1.2
- Reduction in the cytostatic activity upon M. hyorhinis infection (MDA-MB-231 cells): 40 fold
- Reduction in the cytostatic activity upon M. hyorhinis infection (OST.TK^− cells): 70 fold
- Activation (phosphorylation) of gemcitabine in MCF-7 cells (MCF-7 cells [3]): readily activated
- Concentration causing cell cycle arrest in the S-phase (MCF-7 cells [4]): 0.2 µM
- IC50 (MCF-7/HYOR cells [5]; no TPi, no plasmocin, read-out: IC50 MCF-7/HYOR As such): 80 ± 28 nM
- IC50 (MCF-7/HYOR cells [5]; with 10 μM TPi, read-out: IC50 MCF-7/HYOR +TPi (10 μM)): 5.8 ± 1.2 nM
- Ratio (1)/(2) MCF-7/HYOR (MCF-7/HYOR cells [5]; [6]): 14
- Reduction of cytostatic activity in infected MCF-7/HYOR compared to control MCF-7 cells (MCF-7/HYOR cells [5]; M. hyorhinis infection): 10 fold and 14 fold
- Anti-proliferative activity in MCF-7/HYOR after three days pre-incubation with doxycycline (MCF-7/HYOR cells [5]; doxycycline, 3 days): restores
- Anti-proliferative activity in MCF-7/HYOR after three days pre-incubation with plasmocin (MCF-7/HYOR cells [5]; plasmocin 25 μg/ml, 3 days): restores
- Active (phosphorylated) metabolites of gemcitabine in M. hyorhinis infected MCF-7 cells (MCF-7/HYOR cell cultures): no active metabolite can be detected

— US20110065663A1, “ANTI-CANCER COMBINATION THERAPY” (Katholieke Universiteit Leuven, K.U. Leuven R&D, priority 2008, published 2011)
